Data on 2 compounds can be found in patent US11376216B2, “Periodontal disease therapy” (New York University, priority 2018, dated 2022).

In data set [1] the test system is pre-osteoclastic cells. Nature of the data set: Viability/proliferation of osteoclast progenitors (cytotoxicity of 4C). The data set is classed as cell-based, mouse. The settings on record: at up to 100 μM; without RANKL and M-CSF. As for the experimental part: (§1) (A) “4C” structure with NMR in dimethyl sulfoxide (DMSO). (B) Purity by high-performance liquid chromatography (HPLC). Ficoll processed non-adherent bone marrow cells were seeded at 20,000 per well in 96-well-plate and stimulated with the indicated concentration of cytokines (macrophage-colony stimulating factor (M-CSF), 30 ng ml^−1 from day 1; receptor activator of nuclear factor kappa-B ligand (RANKL), 50 ng ml^−1 from day 3); fresh cytokines were added every other day. (C) No cytotoxicity of 4C to the proliferation of osteoclast (OC) progenitors (without RANKL and M-CSF). (D-E) Representative TRAP staining images and analysis of WT mouse bone marrow in vitro OC cultures treated with 1 mM succinate or control in the presence of SucnR1 antagonist 4C at indicated concentrations. **p<0.01, *** p<0.001 according to Bonferroni post hoc test after ANOVA, N=5.
(§2) The structure of the synthetic antagonist of SucnR1 4C was authenticated using nuclear magnetic resonance spectroscopy (FIG. 2A) with a purity of 98.002% according to high-performance liquid chromatography (FIG. 2B).

The test system of data set [2] is osteoclast culture derived from ficoll processed mouse bone marrow cells. The experiment in a line: Succinate-stimulated osteoclastogenesis in bone marrow osteoclast cultures (TRAP staining). The data set is classed as cell-based. The settings on record: 1 mM succinate, in vitro. Here is the method: as §1, §2
The target in data set [3] is T1, Human Succinate Receptor 1 (Homo sapiens, UniProt Q9BXA5).
T1 sequence (Q9BXA5 1-334): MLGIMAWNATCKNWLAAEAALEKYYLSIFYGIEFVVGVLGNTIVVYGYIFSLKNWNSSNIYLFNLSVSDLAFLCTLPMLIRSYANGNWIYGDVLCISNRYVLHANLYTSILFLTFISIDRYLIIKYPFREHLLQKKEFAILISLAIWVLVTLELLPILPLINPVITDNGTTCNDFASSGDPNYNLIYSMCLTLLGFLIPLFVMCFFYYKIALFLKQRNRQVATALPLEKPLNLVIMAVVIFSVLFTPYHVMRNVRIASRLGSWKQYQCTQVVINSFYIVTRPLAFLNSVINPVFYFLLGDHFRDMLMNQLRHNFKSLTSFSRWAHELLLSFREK
Nature of the data set: Human Succinate Receptor 1 AequoScreen cell line calcium signal upon succinate activation. Format: cell-based. As to conditions: succinate 500 μM, read-out: inhibition of SucnR1 activation by succinate. Here is the method:
Human Succinate Receptor 1 AequoScreen® Cell Line (PerkinElmer ES-744-A) was used to assess the activity of SUCNR1 upon activation by ligand (succinate 500 μM) in the presence and absence of antagonists. Cells were seeded at 5,000 cells/well for 24 hour before the calcium dye was added. Forty-five minutes later, the antagonists were added at indicated concentrations. Fifteen minutes later, the ligand was added and the fluorescent signal (EX/EM: 485/525) was measured immediately on a plate reader. A) The efficacy of 3 newly synthesized compounds in comparison with 4C at the same concentration. (*p<0.05, **p<0.001 by t-test in comparison to ligand alone post One-Way ANOVA) B) Dose effects of the compound 7a at various concentrations. (*p<0.05, **p<0.001 in comparison to […] by t-test post One-Way ANOVA).
Structure-activity relationship studies were performed using the compounds depicted in FIG. 7. The structure and purity of the compounds were confirmed via HPLC and NMR. At the same concentration of 4C, these antagonists inhibited the activation of SucnR1 by succinate in vitro (FIG. 8A).

Regarding `C[C@H](NC(=O)Cc1ccc(-c2ccc3cccnc3n2)cc1)c1ccc(-c2ccc(F)c(C(F)(F)F)c2)cc1` [4C], in data set [1], the “inhibitory effect on the viability of pre-osteoclastic cells” value is given as “no inhibitory effect”. Further, the “reduction of succinate stimulation of osteoclastogenesis” value in data set [2] (4C at 0.1 μM) was “started to reduce the stimulation of succinate”; in data set [2] (4C at 10 μM) it was “completely erase the simulation of osteoclastogenesis by succinate”.

Broadly, the inhibition is the change of the read-out against control, counted positive when it falls. On to `CNC(=O)Cc1ccc(-c2ccc3cccnc3n2)cc1` [Cpd-7a], for which the inhibition at 20 µM in data set [3] stood at 50%.
